Article PMC6320962, “Synthesis, Experimental and Density Functional Theory (DFT) Studies on Solubility of Camptothecin Derivatives” (Molecules, 2018)

What was measured:
[1] = in words; cited from earlier work
[2] = clinical trial, early 1970s; cited from earlier work
[3] = tested on: wild-type HIV-1; design: method as in PMID 21344906; conditions: cited from earlier work

CC[C@@]1(O)C(=O)OCc2c1cc1n(c2=O)Cc2cc3ccccc3nc2-1 [CPT, Camptothecin]
water solubility [1]: negligible water solubility

CC[C@@]1(O)C(=O)OCc2c1cc1n(c2=O)Cc2c-1nc1ccc(C3CCCCC3)cc1c2C [P210, 10-Cyclohexyl-7-methyl-20(S)-camptothecin]
melting point: 243 to 245 °C

CC[C@@]1(O)C(=O)OCc2c1cc1n(c2=O)Cc2c-1nc1ccc(N3CCOCC3)cc1c2C [P211, 7-Methyl-10-morpholino-20(S)-camptothecin]
melting point: 283 to 285 °C

CC[C@@](O)(C(=O)[O-])c1cc2n(c(=O)c1CO)Cc1cc3ccccc3nc1-2.[Na+] [compound 15]
efficacy [2]: low efficacy
side effects [2]: unpredictable and severe side effects, including hemorrhagic cystitis and myelotoxicity

Cc1cc(/C=C/C#N)cc(C)c1Nc1ccnc(Nc2ccc(C#N)cc2)n1 [rilpivirine]
EC50 [3]: 670 pM
